Measurements published in US20040259082A1.

Experiments:
HIV-RT = HIV-RT (Human immunodeficiency virus type 1 group M subtype B, UniProt P03366); experiment: Charged nucleobase (aminoallyl-dUTP) as polymerase substrate; type: biochemical; conditions: dATP, dCTP, dGTP plus AA-dUTP
Experimental: (§1) Arrows indicate the extension products.
(§2) Charged Nucleobase as a Polymerase Substrate. […] Aminoallyl-dUTP was tested with 4 different polymerases.

Klenow = Klenow (Escherichia coli, UniProt P00582); experiment: as above; type: biochemical; conditions: dATP, dCTP, dGTP plus AA-dUTP
Experimental: as §1, §2

Taq = Taq (Thermus aquaticus, UniProt P19821); experiment: as above; type: biochemical; conditions: dATP, dCTP, dGTP plus AA-dUTP
Sequence of Taq (P19821 whole entry): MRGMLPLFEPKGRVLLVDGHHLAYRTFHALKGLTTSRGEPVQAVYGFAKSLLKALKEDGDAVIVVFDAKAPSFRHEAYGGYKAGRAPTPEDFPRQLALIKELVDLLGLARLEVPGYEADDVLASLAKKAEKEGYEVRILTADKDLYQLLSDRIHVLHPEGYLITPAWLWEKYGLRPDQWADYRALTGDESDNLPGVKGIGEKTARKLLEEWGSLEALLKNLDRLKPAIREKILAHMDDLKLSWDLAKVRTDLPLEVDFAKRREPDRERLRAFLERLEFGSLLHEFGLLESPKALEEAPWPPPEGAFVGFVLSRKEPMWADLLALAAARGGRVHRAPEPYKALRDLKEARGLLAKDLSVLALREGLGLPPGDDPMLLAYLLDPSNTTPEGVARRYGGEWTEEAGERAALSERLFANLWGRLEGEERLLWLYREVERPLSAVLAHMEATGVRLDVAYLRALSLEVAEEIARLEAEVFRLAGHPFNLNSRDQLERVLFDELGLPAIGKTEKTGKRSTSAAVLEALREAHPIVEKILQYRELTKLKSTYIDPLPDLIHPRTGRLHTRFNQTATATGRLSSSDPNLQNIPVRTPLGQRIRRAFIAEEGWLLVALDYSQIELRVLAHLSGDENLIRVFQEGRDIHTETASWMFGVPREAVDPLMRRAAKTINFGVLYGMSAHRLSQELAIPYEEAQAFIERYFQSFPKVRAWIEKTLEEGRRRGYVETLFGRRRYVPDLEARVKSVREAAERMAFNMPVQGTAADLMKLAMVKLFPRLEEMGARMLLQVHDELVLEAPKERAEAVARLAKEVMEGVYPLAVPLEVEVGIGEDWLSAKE
Experimental: as §1, §2

T7 Sequenase 2.0 = T7 Sequenase 2.0 (Escherichia phage T7, UniProt P00581, DEL118-145); conditions: dATP, dCTP, dGTP plus AA-dUTP
Text: Samples contain dATP, dCTP, dGTP and either dUTP (first lane of each enzyme) or AA-dUTP (second lane each enzyme). Arrows indicate the extension products.

[1] = Photodegradation and single molecule detection calculation; conditions: 60 photons, 0.45% detection efficiency, 13,333 excitations
[2] = Capillary electrophoresis of unlabeled nucleotides with Mg++; type: physicochemical
Experimental: FIG. 14 illustrates the effect of Mg^++ on electrophoretic mobility of unlabeled nucleotides.
Electrophoresis Results. A γ-dNTP (FIG. 13A) with the charge configuration N(0) F(+2) was synthesized and its electrophoretic mobility examined in an agarose gel as a function of Mg^++ concentration (FIG. 13B). As expected (FIG. 12B), its mobility changed from negative to positive with increasing Mg^++, passing through zero at about 3 mM Mg^++. A direct comparison with the calculation (FIG. 12B) is not possible because, while the gels contained the indicated Mg^++ concentrations, the samples (20 μL) loaded in each lane contained 10 mM Mg^++. The importance of attaching a (+2) charge to the γ-label (FIG. 13A) with respect to obtaining a bipolar switch mode (neg to pos) is illustrated by a capillary electrophoresis experiment with unlabeled dTDP and dTTP (FIG. 14). […] It is clear that additional positive charge can be added to the these nucleotides if one desires a negative to positive charge switch. This is what was done with the γ-dNTP of FIG. 13.

T7 polymerase exo- = biological target: T1, T7 polymerase exo- (Escherichia phage T7, UniProt P00581, D5A/E7A); experiment: Steady-state kinetics, Km determination for dTTP; type: biochemical; conditions: Lineweaver-Burk plot; 5 sec at 20° C.
T1 construct: made in house; host or cells: E. coli TOP 10

HIV-1 RT = HIV-1 RT (Human immunodeficiency virus type 1 group M subtype B, UniProt P03366); conditions: 50 μM dATP, dCTP, dGTP; 37° C. for 30 min
Experimental: FIG. 6 illustrates the utilization of different γ-dNTPs by T7 Sequenase 2.0 and HIV polymerases. Samples contain 50 μM dATP, dCTP, dGTP and either (a) dUTP; (b) γ-dUTP-BodipyTR; (c) γ-dUTP-Fluorescein; or a control (d) omitting dUTP and its analogs. Incubation was at 37° C. for 30 min.
18 commercially-available polymerases were screened for the utilization of γ-dUTP-BodipyTR.

NC/C=C/c1cn([C@H]2C[C@H](O)[C@@H](COP(=O)(O)OP(=O)(O)OP(=O)(O)O)O2)c(=O)[nH]c1=O [Aminoallyl-dUTP]
extension product with AA-dUTP (HIV-RT): produced full-length product | extension product with AA-dUTP (Klenow): stopped at the dUTP incorporation sites | extension product with AA-dUTP (Taq): stopped at the dUTP incorporation sites | extension product with AA-dUTP (T7 Sequenase 2.0): produced full-length product

CN(C)c1ccc2c(-c3ccccc3C(=O)[O-])c3ccc(N(C)C)cc3[o+]c2c1 [TMR, tetramethylrhodamine]
molecules escaping detection due to photodegradation [1]: 0.44%

Cc1cn([C@H]2C[C@H](O)[C@@H](COP(=O)(O)OP(=O)(O)O)O2)c(=O)[nH]c1=O [dTDP]
charge in presence of Mg++ [2]: remained in negative territory

Cc1cn([C@H]2C[C@H](O)[C@@H](COP(=O)(O)OP(=O)(O)OP(=O)(O)O)O2)c(=O)[nH]c1=O [dTTP]
Km (T7 polymerase exo-): 13 µM | charge in presence of Mg++ [2]: remained in negative territory

O=c1ccn([C@H]2C[C@H](O)[C@@H](COP(=O)(O)OP(=O)(O)OP(=O)(O)O)O2)c(=O)[nH]1 [dUTP]
incorporation of γ-dUTP analogs / dUTP (FIG. 6) (HIV-1 RT): synthesized full-length product
